These molecules were tested on Ramos B-Cell Line Stimulated with IL-4 (assay: Assay for Ramos B-Cell Line Stimulated with IL-4 (CD23 upregulation, FACS; Example 2)). Settings: human Ramos B cells, IL-4 50 units/mL for 20-24 hours, anti-CD23-PE.
Assay type: cell-based
Source text: One means of assaying for such inhibition is detection of the effect of the 2,4-pyrimidinediamine compounds on the upregulation of downstream gene products. In the Ramos/IL4 assay, B-cells are stimulated with the cytokine Interleukin-4 (IL-4) leading to the activation of the JAK/Stat pathway through phosphorylation of the JAK family kinases, JAK1 and JAK3, which in turn phosphorylate and activate the transcription factor Stat-6. […] To study the effect of inhibitors (e.g., the 2,4-substituted pyrimindinediamine compounds described herein) on the JAK1 and JAK3 kinases, human Ramos B cells are stimulated with human IL-4. 20 to 24 hours post stimulation, cells are stained for upregulation of CD23 and analyzed using flow cytometry (FACS). […] An exemplary assay of this type is described in greater detail in Example 2.
B-cells stimulated with cytokine Interleukin-4 (IL-4) activate the JAK/Stat pathway through phosphorylation of the JAK family kinases, JAK-1 and JAK-3, which in turn phosphorylate and activate the transcription factor Stat-6. […] To study the effect of inhibitors on the JAK family kinases, human Ramos B cells are stimulated with human IL-4.
The Ramos B-cell line was acquired from ATCC (ATCC Catalog No. CRL-1596). The cells were cultured in RPMI 1640 (Cellgro, MediaTech, Inc., Herndon, Va., Cat No. 10-040-CM) with 10% fetal bovine serum (FBS), heat inactivated (JRH Biosciences, Inc, Lenexa, Kans., Cat No. 12106-500M) according to ATCC propagation protocol. Cells were maintained at a density of 3.5×10^5. The day before the experiment, Ramos B-cells were diluted to 3.5×10^5 cells/mL to ensure that they were in a logarithmic growth phase.
Cells were spun down and suspended in RPMI with 5% serum. 5×10^4 cells were used per point in a 96-well tissue culture plate. Cells were pre-incubated with compound or DMSO (Sigma-Aldrich, St. Louis, Mo., Cat No. D2650) vehicle control for 1 hour in a 37° C. incubator.
Cells were then stimulated with IL-4 (Peprotech Inc., Rocky Hill, N.J., Cat No. 200-04) for a final concentration of 50 units/mL for 20-24 hours. Cells were then spun down and stained with anti-CD23-PE (BD Pharmingen, San Diego, Calif., Cat No. 555711) and analyzed by FACS. Detection was performed using a BD LSR I System Flow Cytometer, purchased from Becton Dickinson Biosciences of San Jose, Calif.

Molecule	IC50 [µM]
C#CCNS(=O)(=O)c1ccc(Nc2nc(Nc3cc(C)c(OC)c(C)c3)ncc2F)cc1 [I-5, N2-(3,5-Dimethyl-4-methoxyphenyl)-5-fluoro-N4-[4-(prop-2-ynylaminosulfonyl)phenyl]-2,4-pyrimidinediamine]	0.0316
O=S(=O)(NC1CC1)c1ccc(Nc2nc(Nc3ccc(OCc4cccnc4)cc3)ncc2C(F)(F)F)cc1 [I-13, N4-[4-N—(Cyclopropyl)aminosulfonylphenyl]-N2-[4-(3-pyridinyl)methyleneoxyphenyl]-5-trifluoromethyl-2,4-pyrimidinediamine]	0.549
COc1ccc(N(C)c2ncc(N)c(Nc3ccc(S(N)(=O)=O)cc3)n2)cc1 [I-9, 5-Amino-N4-(4-aminosulfonylphenyl)-N2-(4-methoxyphenyl)-N2-methyl-2,4-pyrimidinediamine]	99.6
C#CCNS(=O)(=O)c1cccc(Nc2nc(Nc3cc(OC)c(OC)c(OC)c3)ncc2F)c1 [I-1, 5-Fluoro-N4-[3-(prop-2-ynylaminosulfonyl)phenyl]-N2-(3,4,5-trimethoxyphenyl)-2,4-pyrimidinediamine]	0.14
COc1cccc(N(C)c2ncc(N)c(Nc3cccc(S(N)(=O)=O)c3)n2)c1 [I-10, 5-Amino-N4-(3-aminosulfonylphenyl)-N2-(3-methoxyphenyl)-N2-methyl-2,4-pyrimidinediamine]	64.2
NS(=O)(=O)c1cccc(Nc2nc(Nc3ccc(OCc4ccccn4)cc3)ncc2C(F)(F)F)c1 [I-12, N4-(3-Aminosulfonylphenyl)-N2-[4-(2-pyridinyl)methyleneoxyphenyl]-5-trifluoromethyl-2,4-pyrimidinediamine]	1.11
COc1cccc(N(C)c2ncc(N)c(Nc3ccc(S(N)(=O)=O)cc3)n2)c1 [I-11, 5-Amino-N4-(4-aminosulfonylphenyl)-N2-(3-methoxyphenyl)-N2-methyl-2,4-pyrimidinediamine]	15.9
CNC(=O)COc1cccc(Nc2ncc(N)c(Nc3ccc(S(N)(=O)=O)cc3)n2)c1 [I-6, 5-Amino-N4-(4-aminosulfonylphenyl)-N2-[3-(N-methylamino)carbonylmethyleneoxyphenyl]-2,4-pyrimidinediamine]	8.8
C#CCNS(=O)(=O)c1cccc(Nc2nc(Nc3cc(C)c(OC)c(C)c3)ncc2F)c1 [I-4, N2-(3,5-Dimethyl-4-methoxyphenyl)-5-fluoro-N4-[3-(prop-2-ynylaminosulfonyl)phenyl]-2,4-pyrimidinediamine]	0.0955
CNC(=O)COc1cccc(Nc2ncc(N)c(Nc3cccc(S(N)(=O)=O)c3)n2)c1 [I-7, 5-Amino-N4-(3-aminosulfonylphenyl)-N2-[3-(N-methylamino)carbonylmethyleneoxyphenyl]-2,4-pyrimidinediamine]	5.82

Now from value to molecule:

IC50 [µM]	Molecule
89.2	Cc1cnc(Nc2ccc(C#N)cc2)nc1Nc1ccc(CN(C)S(=O)(=O)C2CC2)cc1 [II-27, N2-(4-cyano)phenyl-N4-[4-(N-cyclopropylsulfonyl-N-methyl)aminomethyl]phenyl-5-methyl-2,4-pyrimidinediamine]
0.044	Cc1cnc(Nc2ccc3[nH]c(C(F)(F)F)nc3c2)nc1Nc1ccc(CNS(=O)(=O)C2CC2)cc1 [IV-2, N4-(4-cyclopropylsulfonylaminomethyl)phenyl-5-methyl-N2-(2-trifluoromethylbenzoimidazol-5-yl)-2,4-pyrimidinediamine]
5.11	Nc1cnc(Nc2ccc3cn[nH]c3c2)nc1Nc1cccc(S(N)(=O)=O)c1 [VIII-8, 5-Amino-N4-(3-aminosulfonylphenyl)-N2-(indazoline-6-yl)-2,4-pyrimidinediamine]
0.279	Cc1cnc(Nc2cccc(C(N)=O)c2)nc1Nc1ccc(CNS(=O)(=O)C2CC2)c(Cl)c1 [II-18, N2-(3-aminocarbonyl)phenyl-N4-(3-chloro-4-cyclopropylsulfonylaminomethyl)phenyl-5-methyl-2,4-pyrimidinediamine]
0.0709	Cc1cc(Nc2ncc(F)c(Nc3ccc4c(c3)CCN4S(C)(=O)=O)n2)ccc1N1CCN(C)CC1 [VIII-5]
0.127	Cc1cnc(Nc2ccc3[nH]c(C(C)(C)C)nc3c2)nc1Nc1ccc(CNS(=O)(=O)C2CC2)cc1 [IV-4, N2-(2-tert-butylbenzoimidazol-5-yl)-N4-(4-cyclopropylsulfonylaminomethyl)phenyl-5-methyl-2,4-pyrimidinediamine]
0.242	CS(=O)(=O)N1CCc2cc(Nc3nc(Nc4ccc5nc(C(F)(F)F)[nH]c5c4)ncc3F)ccc21 [VIII-4, 5-Fluoro-N4-[(1-methylsulfonyl)indolin-5-yl]-N2-(2-trifluoromethylbenzimidazol-5-yl)-2,4-pyrimidinediamine]
0.0873	Cc1cnc(Nc2ccc3[nH]c(-c4cccs4)nc3c2)nc1Nc1ccc(CNS(=O)(=O)C2CC2)cc1 [IV-5, N4-(4-cyclopropylsulfonylaminomethyl)phenyl-5-methyl-N2-[2-(thien-2-yl)benzoimidazol-5-yl]-2,4-pyrimidinediamine]
0.178	Cc1cnc(Nc2ccc3[nH]c(-c4cccnc4)nc3c2)nc1Nc1ccc(CNS(=O)(=O)C2CC2)cc1 [IV-3, N4-(4-cyclopropylsulfonylaminomethyl)phenyl-5-methyl-N2-[2-(pyridin-3-yl)benzoimidazol-5-yl]-2,4-pyrimidinediamine]
0.717	Cc1cnc(Nc2ccc3c(c2)nc(C)n3C)nc1Nc1ccc2c(c1)C(NS(C)(=O)=O)CC2 (racemic) [VIII-3, (+/−)-N2-(1,2-Dimethylbenzimidazol-5-yl)-N4-[1-(methylsulfonylamino)indan-6-yl]-5-methyl-2,4-pyrimidinediamine]
0.505	Cc1cnc(Nc2cccc(C(N)=O)c2)nc1Nc1ccc(CN(C)S(=O)(=O)C2CC2)cc1 [II-20, N2-(3-aminocarbonyl)phenyl-N4-[4-(N-cyclopropylsulfonyl-N-methyl)aminomethyl]phenyl-5-methyl-2,4-pyrimidinediamine]
0.0747	Cc1cnc(Nc2ccc3[nH]cnc3c2)nc1Nc1ccc(CNS(=O)(=O)C2CC2)cc1 [IV-1, N2-(benzoimidazol-5-yl)-N4-(4-cyclopropylsulfonylaminomethyl)phenyl-5-methyl-2,4-pyrimidinediamine]
0.401	COc1cc(Nc2ncc(C)c(Nc3ccc4c(c3)C(NS(C)(=O)=O)CC4)n2)cc(OC)c1OC (racemic) [V-1, (+/−)-5-Methyl-N4-[1-(methylsulfonylamino)indan-6-yl]-N2-(3,4,5-trimethoxyphenyl)-2,4-pyrimidinediamine]

Each molecule was assayed on BaF3 V617F cells; UKE-1 (assay: Proliferation Assay (Cell Titer-Glo; Example 7)). Settings: proliferation 72 hours, inhibit JAK2 activity, cell line (BaF3 V617F or UKE-1) not stated.
Assay type: cell-based
How it was run: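 Proliferation IC50s reflect 72 h compound exposure at 37 °C, read by Cell Titer-Glo luminescence. Compound was serially diluted 3-fold from a 5 mM DMSO stock and added as a 2× solution; BaF3 V617F cells were grown in RPMI/10% FBS, UKE-1 in Iscove's DMEM with FBS, equine serum and hydrocortisone.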

IC50 [µM]	Molecule
1.6	COc1c(C)cc(Nc2ncc(C)c(Nc3ccc4c(c3)C(NS(=O)(=O)C3CC3)CC4)n2)cc1C (racemic) [V-7, (+/−)-N4-[1-(Cyclopropylsulfonylamino)indan-6-yl]-N2-(3,5-dimethyl-4-methoxyphenyl)-5-methyl-2,4-pyrimidinediamine]
20.3	Cc1cnc(Nc2ccc(N3CCC(F)(F)CC3)cc2)nc1Nc1ccc(CNS(=O)(=O)N(C)C)cc1 [II-105, N4-[(4-(Dimethylamino)sulfonylamino)methylphenyl]-N2-[4-(4,4-difluoro-1-piperidinyl)phenyl]-5-methyl-2,4-pyrimidinediamine]

Molecule	IC50 [µM]
5-Chloro-N4-[4-(N-Cyclopropylsulfonylamino)methylphenyl]-N2-[3-methyl-4-[(1S,4S)-5-methyl-2,5-diazabicyclo[2.2.1]hept-2-yl]phenyl]-2,4-pyrimidinediamine [II-185]	0.11

Source: patent US8304422B2, “Compositions and methods for inhibition of the JAK pathway” (Rigel Pharmaceuticals, Inc., priority 2007, dated 2012)
